pIC50: −log10 of the molar value.
Molecular target: PAR4 (Homo sapiens (Human), UniProt Q96RI0)
Assay: FLIPR assay in PAR4-expressing HEK293 cells (PAR4 antagonist activity, calcium mobilization)
Format: cell-based
Conditions: FLIPR assay as described in Example A
Source text: The FLIPR assay is an exemplary in vitro assay for measuring the activity of the PAR4 antagonists of the present invention. In this assay, intracellular calcium mobilization is induced in PAR4 expressing cells by a PAR4 agonist and calcium mobilization is monitored. See, e.g., Example A.
HEK293 cells stably expressing PAR4 were generated by a standard method of transfection of human […] cDNA expression vector or by RAGE technology from Athersys Inc. (Cleveland, Ohio) and selected based on PAR4 protein expression of mRNA expression. […] These cells express endogenous PAR1 and can elicit calcium signal upon stimulation with PAR1 agonist peptide.
Counter screens for agonist activity and PAR1 antagonist activity were also performed. Briefly, HEK293 EBNA PAR4 clone 20664.1J cells were plated 24 hrs. prior to experiment in 384 well, Poly-D-Lysine coated, black, clear bottom plates (Greiner Bio-One, Monroe, N.C.). Cells were plated at 20,000 cells/well in 20 μl growth medium and incubated at 37° C. with 5% CO2 overnight. At time of assay, media was replaced with 40 μl 1× Hank's Buffered Saline Solution (HBSS) (with 10 mM HEPES) and 20 μl test compound also diluted in 1×HBSS buffer was added at various concentrations and 0.67% DMSO final concentration on the FDSS for agonist measurement. The cells were then incubated for 30 minutes at room temperature followed by addition of 20 μl of agonist peptide for antagonist measurement on the FDSS.
As indicated above, the FLIPR assay, an in vitro assay, measures the PAR4 antagonist activity of compounds tested as described in Example A.

Sequence of PAR4 (Q96RI0 18-385): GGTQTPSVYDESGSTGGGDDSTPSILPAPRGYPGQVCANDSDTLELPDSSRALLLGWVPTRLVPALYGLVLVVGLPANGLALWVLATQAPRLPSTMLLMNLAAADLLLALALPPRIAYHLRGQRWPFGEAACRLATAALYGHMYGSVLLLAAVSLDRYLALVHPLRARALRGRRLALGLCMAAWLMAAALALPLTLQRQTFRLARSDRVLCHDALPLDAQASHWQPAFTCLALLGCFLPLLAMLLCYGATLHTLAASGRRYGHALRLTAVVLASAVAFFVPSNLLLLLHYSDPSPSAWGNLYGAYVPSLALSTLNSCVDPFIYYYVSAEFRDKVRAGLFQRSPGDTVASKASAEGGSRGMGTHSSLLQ

| Structure (SMILES) | pIC50 |
| --- | --- |
| Fc1ccc2sc(-c3cn4nc(Br)sc4n3)nc2c1 [Example 193] | 5.98 |
| COc1nn2cc(-c3nc4cc(F)ccc4s3)nc2s1 [Example 194] | 8.02 |
| COc1nn2cc(-c3nc4c(OC(F)(F)F)cccc4s3)nc2s1 [Example 195] | 5.62 |
| COc1nn2cc(-c3nc4c(Cl)cccc4s3)nc2s1 [Example 196] | 6.10 |
| COc1nn2cc(-c3nc4ccc(C)cc4s3)nc2s1 [Example 197] | 5.98 |
| CC(F)(F)c1nn2cc(-c3nc4c(Cl)cccc4s3)nc2s1 [Example 198] | 5.33 |
| Cc1ccc2nc(-c3cn4nc(C(C)(F)F)sc4n3)sc2c1 [Example 199] | 5.57 |
| COc1cc2oc(-c3cn4nc(Br)sc4n3)cc2cc1Cl [Example 200, 2-Bromo-6-(5-chloro-6-methoxybenzofuran-2-yl)imidazo[2,1-b][1,3,4]thiadiazole] | 8.06 |
| COc1nn2cc(-c3cc4cc(Cl)c(OC)cc4o3)nc2s1 [Example 201, 2-Methoxy-6-(5-chloro-6-methoxybenzofuran-2-yl)imidazo[2,1-b][1,3,4]thiadiazole] | 8.36 |
| COc1cc2oc(-c3cn4nc(SC)sc4n3)cc2cc1Cl [Example 202, 6-(5-Chloro-6-methoxybenzofuran-2-yl)-2-(methylthio)imidazo[2,1-b][1,3,4]thiadiazole] | 8.50 |
| COc1cc(O)c2cc(-c3cn4nc(OC)sc4n3)oc2c1 [Example 204, 6-Methoxy-2-(2-methoxyimidazo[2,1-b][1,3,4]thiadiazol-6-yl)benzofuran-4-ol] | 6.77 |
| CCOc1cc(OC)cc2oc(-c3cn4nc(OC)sc4n3)cc12 [Example 206] | 8.70 |
| CC(F)(F)c1nn2cc(-c3cc4ccccc4o3)nc2s1 [Example 207, 6-(Benzofuran-2-yl)-2-(1,1-difluoroethyl)imidazo[2,1-b][1,3,4]thiadiazole] | 6.89 |
| FC(F)C(F)(F)c1nn2cc(-c3cc4ccccc4o3)nc2s1 [Example 208, 6-(Benzofuran-2-yl)-2-(1,1,2,2-tetrafluoroethyl)imidazo[2,1-b][1,3,4]thiadiazole] | 6.34 |
| FC(F)(Cl)c1nn2cc(-c3cc4ccccc4o3)nc2s1 [Example 209, 6-(Benzofuran-2-yl)-2-(chlorodifluoromethyl)imidazo[2,1-b][1,3,4]thiadiazole] | 6.35 |
| COc1nn2cc(-c3cc4c(OCc5ccccc5)cccc4o3)nc2s1 [Example 210, 6-(4-(Benzyloxy)benzofuran-2-yl)-2-methoxyimidazo[2,1-b][1,3,4]thiadiazole] | 7.61 |
| COc1nn2cc(-c3cc4c(O)cccc4o3)nc2s1 [Example 211, 2-(2-Methoxyimidazo[2,1-b][1,3,4]thiadiazol-6-yl)benzofuran-4-ol] | 6.95 |
| COc1cc(OC)c2cc(-c3cn4nc(C(C)F)sc4n3)oc2c1 (stereo not drawn) [Example 212, 6-(4,6-Dimethoxybenzofuran-2-yl)-2-(1-fluoroethyl)imidazo-[2,1-b][1,3,4]thiadiazole] | 7.29 |
| C[C@@H](F)c1nn2cc(-c3cc4c(Cl)cc(Cl)cc4o3)nc2s1 [Example 213A, (R)-6-(4,6-Dichlorobenzofuran-2-yl)-2-(1-fluoroethyl)imidazo[2,1-b][1,3,4]thiadiazole] | 6.48 |

| Structure (SMILES) | pIC50 |
| --- | --- |
| C[C@H](F)c1nn2cc(-c3cc4c(Cl)cc(Cl)cc4o3)nc2s1 [Example 213B, (S)-6-(4,6-Dichlorobenzofuran-2-yl)-2-(1-fluoroethyl)imidazo[2,1-b][1,3,4]thiadiazole] | 7.99 |
| CSc1nn2cc(-c3cc4c(O)cccc4o3)nc2s1 [Example 214, 2-(2-(Methylthio)imidazo[2,1-b][1,3,4]thiadiazol-6-yl)benzofuran-4-ol] | 6.49 |
| COCOc1cccc2oc(-c3cn4nc(SC)sc4n3)cc12 [Example 215, 6-(4-(Methoxymethoxy)benzofuran-2-yl)-2-(methylthio)imidazo[2,1-b][1,3,4]thiadiazole] | 7.78 |
| CSc1nn2cc(-c3cc4c(OCc5cccnc5)cccc4o3)nc2s1 [Example 216, 2-(Methylthio)-6-(4-(pyridin-3-ylmethoxy)benzofuran-2-yl) imidazo[2,1-b][1,3,4]thiadiazole] | 6.32 |
| COCOc1cccc2oc(-c3cn4nc(OC)sc4n3)cc12 [Example 217, 2-Methoxy-6-(4-(methoxymethoxy)benzofuran-2-yl)imidazo[2,1-b][1,3,4]thiadiazole] | 8.12 |
| COCOc1c(Br)ccc2oc(-c3cn4nc(OC)sc4n3)cc12 [Example 217A, 6-(5-Bromo-4-(methoxymethoxy)benzofuran-2-yl)-2-methoxyimidazo[2,1-b][1,3,4]thiadiazole] | 7.35 |
| CSc1nn2cc(-c3cc4c(C(=O)O)cccc4o3)nc2s1 [Example 219, 2-(2-(Methylthio)imidazo[2,1-b][1,3,4]thiadiazol-6-yl)benzofuran-4-carboxylic acid] | 5.89 |
| CSc1nn2cc(-c3cc4ccc(C(=O)NCc5ccccc5)cc4o3)nc2s1 [Example 220, N-Benzyl-2-(2-(methylthio)imidazo[2,1-b][1,3,4]thiadiazol-6-yl)benzofuran-6-carboxamide] | 6.51 |
| CSc1nn2cc(-c3cc4c(Cl)nccc4o3)nc2s1 [Example 221, 4-Chloro-2-(2-(methylthio)imidazo[2,1-b][1,3,4]thiadiazol-6-yl)furo[3,2-c]pyridine] | 7.90 |
| Clc1nccc2oc(-c3cn4nc(Br)sc4n3)cc12 [Example 222, 2-(2-Bromoimidazo[2,1-b][1,3,4]thiadiazol-6-yl)-4-chlorofuro[3,2-c]pyridine] | 6.33 |
| COc1nn2cc(-c3cc4c(Cl)nccc4o3)nc2s1 [Example 223, 4-Chloro-2-(2-methoxyimidazo[2,1-b][1,3,4]thiadiazol-6-yl)furo[3,2-c]pyridine] | 7.66 |
| COc1nn2cc(-c3cc4c(O)c(Cc5ccccc5)c(OC)cc4o3)nc2s1 [Example 224, 5-Benzyl-6-methoxy-2-(2-methoxyimidazo[2,1-b][1,3,4]thiadiazol-6-yl)benzofuran-4-ol] | 7.01 |
| COc1cc(OC)c2cc(-c3cn4nc(C(C)(F)F)sc4n3)oc2c1Br [Example 225, 6-(7-Bromo-4,6-dimethoxybenzofuran-2-yl)-2-(1,1-difluoroethyl)imidazo[2,1-b][1,3,4]thiadiazole] | 6.52 |
| COc1nn2cc(-c3cc4c(OCc5ccccc5)cc(OC)c(Br)c4o3)nc2s1 [Example 226, 6-(4-(Benzyloxy)-7-bromo-6-methoxybenzofuran-2-yl)-2-methoxyimidazo[2,1-b][1,3,4]thiadiazole] | 6.23 |
| COc1cc(OCc2ccccc2)c2cc(-c3cn4nc(SC)sc4n3)oc2c1 [Example 227-228] | 8.39 |
| COc1cc(OC)c2cc(-c3cn4nc(SC)sc4n3)oc2c1 [Example 229] | 8.91 |
| CSc1nn2cc(-c3cc4cc(OCc5ccccc5)ccc4o3)nc2s1 [Example 230] | 5.64 |
| CC(F)(F)c1nn2cc(-c3cc4ccc(F)cc4o3)nc2s1 [Example 231] | 7.65 |
| Cc1ccc2oc(-c3cn4nc(C(C)(F)F)sc4n3)cc2c1 [Example 232] | 6.82 |

The remaining lines, values ahead:

| pIC50 | Structure (SMILES) |
| --- | --- |
| 7.80 | Cc1ccc2cc(-c3cn4nc(C(C)(F)F)sc4n3)oc2c1 [Example 233] |
| 6.95 | Cc1cccc2cc(-c3cn4nc(C(C)(F)F)sc4n3)oc12 [Example 234] |
| 6.80 | CC(F)(F)c1nn2cc(-c3cc4cc(Cl)ccc4o3)nc2s1 [Example 236] |
| 7.54 | CC(F)(F)c1nn2cc(-c3cc4ccc(Cl)cc4o3)nc2s1 [Example 237] |
| 7.37 | CC(F)(F)c1nn2cc(-c3cc4c(Cl)cc(Cl)cc4o3)nc2s1 [Example 238] |
| 8.14 | COc1cc2oc(-c3cn4nc(C(C)(F)F)sc4n3)cc2cc1Cl [Example 239] |
| 6.17 | CC(F)(F)c1nn2cc(-c3cc4cccc(OC(F)(F)F)c4o3)nc2s1 [Example 240] |
| 6.54 | CC(F)(F)c1nn2cc(-c3cc4ccc(OCc5ccccc5)cc4o3)nc2s1 [Example 241] |
| 7.30 | COc1cc(OC)c2cc(-c3cn4nc(C(C)(F)F)sc4n3)oc2c1 [Example 242] |
| 6.44 | Fc1ccc2cc(-c3cn4nc(C(F)(F)Cl)sc4n3)oc2c1 [Example 243] |
| 6.42 | Cc1ccc2cc(-c3cn4nc(C(F)(F)Cl)sc4n3)oc2c1 [Example 244] |
| 7.14 | CC(F)c1nn2cc(-c3cc4ccc(F)cc4o3)nc2s1 (stereo not drawn) [Example 245] |
| 6.50 | CC(F)c1nn2cc(-c3cc4ccc(OCc5ccccc5)cc4o3)nc2s1 (stereo not drawn) [Example 246] |
| 7.32 | CC(F)c1nn2cc(-c3cc4ccccc4o3)nc2s1 (stereo not drawn) [Example 247] |
| 6.84 | CSc1nn2cc(-c3cc4c(OCC#N)cccc4o3)nc2s1 [Example 248] |
| 7.71 | CSc1nn2cc(-c3cc4c(OCc5ccc(F)cc5)cccc4o3)nc2s1 [Example 249] |
| 6.57 | CC(F)(F)c1nn2cc(-c3cc4c(OCc5ccccc5)cccc4o3)nc2s1 [Example 250] |
| 6.64 | CC(F)c1nn2cc(-c3cc4c(OCc5ccccc5)cccc4o3)nc2s1 (stereo not drawn) [Example 251] |
| 6.22 | Brc1nn2cc(-c3cc4c(OCc5ccccc5)cc(OCc5ccccc5)cc4o3)nc2s1 [Example 254] |

— patent US9862730B2, “Imidazothiadiazole derivatives as protease activated receptor 4 (PAR4) inhibitors for treating platelet aggregation” (BRISTOL-MYERS SQUIBB COMPANY, priority 2012, dated 2018)
